The values that follow come from patent US7297817B2, “Thio-substituted arylmethanesulfinyl derivatives” (Cephalon France, priority 2004, dated 2007).

One data set deals with Wistar rats. Nature of the data set: Evaluation of Wake Promoting Activity in Rats (EEG/EMG sleep/wake scoring). The data set is classed as in vivo, rat. The settings on record: i.p. route, 100 mg/kg; for Mean AUC0–3h, test compound: first 3 hrs following dosing, n = 8 rats; for wakefulness compared to vehicle-treated animals: p<0.05 vs control groups. Here is the method:
The methodology utilized for evaluating wake promoting activity of test compounds is based on that described by Edgar and Seidel, Journal of Pharmacology and Experimental Therapeutics, 283:757-769, 1997, and incorporated herein in its entirety by reference.
Animal Surgery. Adult, male Wistar rats (275-320 g from Charles River Laboratories, Wilmington, Mass.) were anesthetized (Nembutal, 45 mg/kg, ip.) and surgically prepared with implants for recording of chronic EEG (encephalographic) and EMG (electromyographic) recording. The EEG implants were made from commercially available components (Plastics One, Roanoke, Va.). EEG signals were recorded from stainless steel screw electrodes: 2 frontal (+3.0 mm AP from bregma, ±2.0 mm ML), and 2 occipital (−4.0 mm AP from bregma, ±2.0 mm ML). Two Teflon-coated stainless steel wires were positioned under the nuchal trapezoid muscles for EMG recording. All electrode leads were inserted into a connector pedestal and the pedestal affixed to the skull by application dental acrylic. Antibiotic was administered post surgically and antibiotic cream was applied to the wound edges to prevent infection. At least one week elapsed between surgery and recording.
Recording environment. Postsurgically, rats were housed in pairs in an isolated room. Food and water were available ad libitum, ambient temperature was 21° C., and humidity was 55%. At least 24 hrs prior to recording, they were placed in Nalgene containers (31×31×31 cm) with a wire-grid top, and entry to the room was prohibited during the day of recording except for dosing. The containers were placed on a rack with two shelves, 4 containers per shelf. Fluorescent overhead room lights were set to a 24 hr. light/dark cycle (on at 7 AM, off at 7 PM). Light levels inside the containers were 38 and 25 lux for the top and bottom shelves respectively. Background white-noise (68 db inside the containers) was present in the room to mask ambient sounds.
Data acquisition. EEG and EMG signals were led via cables to a commutator (Plastics One) and then to pre-amplifiers (model 1700, A-M Systems, Carlsborg, Wash.). EEG and EMG signals were amplified (10K and 1K respectively) and bandpass filtered between 0.3 and 500 Hz for EEG and between 10 and 500 Hz for EMG. […] On the day of dosing, data was recorded for 6 to 10 hours beginning at 11 AM.
Drug administration and study design. Compounds were evaluated on groups of from 4 to 8 rats carried out over one or two separate test sessions. […]
Sleep/wake scoring. Sleep and wake activity were determined manually using ICELUS software. […]

Take `CC(=O)N1CCN(C(=O)C[S+]([O-])Cc2ccc(Oc3ccc(Cl)c(Cl)c3)cc2)CC1` (centres unmarked) [Example 22, 1-(4-Acetyl-piperazin-1-yl)-2-[4-(3,4-dichloro-phenoxy)-phenylmethanesulfinyl]-ethanone]: in the data set with Wistar rats, the “Mean AUC0–3h, test compound” value was 162.7 % of waiking time × hr and the “wakefulness compared to vehicle-treated animals” value is listed as “significantly greated wakefulness”. As to `NC(=O)C[S+]([O-])Cc1ccccc1COc1ccccc1` (centres unmarked), the melting point (commonly the temperature of the solid-liquid transition) fell in the range of 153 to 154 °C. For `NC(=O)C[S+]([O-])Cc1ccccc1NC(=O)c1ccc(Cl)cc1` (centres unmarked) [Example 113, N-(2-carbamoylmethanesulfinylmethyl-phenyl)-4-chloro-benzamide], in the data set with Wistar rats, the “Mean AUC0–3h, test compound” value is recorded as 99.0 % of waiking time × hr and the “wakefulness compared to vehicle-treated animals” value was “significantly greated wakefulness”.
